{"source": "patent US7803930B2", "about": "“Antisense modulation of apolipoprotein B-expression” (Isis Pharmaceuticals, Inc., priority 2002, dated 2010)", "note": "In the oligonucleotide strings, read from the 5' end, every base follows the letter of its sugar. An asterisk marks phosphorothioate; unmarked linkages are phosphodiester. Other units and linkages are bracketed, terminal groups are in braces. A string of capitals states the bases alone. e = 2'-O-(2-methoxyethyl) (MOE); [5mC] = 5-methylcytosine; d = 2'-deoxy (DNA)"}
{"test_system": "human apolipoprotein B mRNA", "assay": "Inhibition of human apolipoprotein B mRNA levels in HepG2 cells, quantitative real-time PCR", "format": "cell-based", "conditions": "HepG2 cells treated with 150 nM of compound; averages from two experiments; quantitative real-time PCR", "summary_of_the_method": "(§1)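 HepG2 cells at 80% confluency were transfected with antisense oligonucleotide using 3.75 μg/mL Lipofectin in Opti-MEM for 4-7 h and harvested 16-24 h after treatment. Apolipoprotein B mRNA was measured by real-time RT-PCR and normalized to GAPDH or RiboGreen total RNA. Percent inhibition came from untreated-control standard curves.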", "units": {"% INHIB (inhibition of human apolipoprotein B mRNA levels)": "%"}}
{"substance": "281624 (antisense eG*eG*eT*eT*e[5mC]*dT*dA*dG*d[5mC]*d[5mC]*dG*dT*dA*dG*dT*eT*eT*e[5mC]*e[5mC]*e[5mC]) [compound 281624]", "% INHIB (inhibition of human apolipoprotein B mRNA levels)": 75}
{"substance": "301033 (eA*e[5mC]*eT*eG*e[5mC]*d[5mC]*dT*dA*d[5mC]*dT*dG*d[5mC]*dA*dA*dG*eG*e[5mC]*eT*eG*eG; antisense) [compound 301033]", "% INHIB (inhibition of human apolipoprotein B mRNA levels)": 77}
{"substance": "281602 (antisense eG*eT*e[5mC]*eT*eG*dA*dA*dG*dA*dA*dG*dA*dA*d[5mC]*d[5mC]*eT*e[5mC]*e[5mC]*eT*eG) [compound 281602]", "% INHIB (inhibition of human apolipoprotein B mRNA levels)": 84}
{"substance": "270997 (antisense eG*e[5mC]*eA*e[5mC]*eT*dG*dA*dG*dG*d[5mC]*dT*dG*dT*d[5mC]*d[5mC]*eA*e[5mC]*eA*e[5mC]*eT) [compound 270997]", "% INHIB (inhibition of human apolipoprotein B mRNA levels)": 24}
{"substance": "281648 (eG*e[5mC]*eA*eG*eG*dT*d[5mC]*d[5mC]*dA*dG*dT*dT*d[5mC]*dA*dT*eA*eT*eG*eT*eG; antisense) [compound 281648]", "% INHIB (inhibition of human apolipoprotein B mRNA levels)": 81}
{"substance": "301019 (eG*eG*e[5mC]*eT*e[5mC]*d[5mC]*dT*d[5mC]*dA*dG*d[5mC]*dG*dG*d[5mC]*dA*eG*e[5mC]*eA*eA*e[5mC]; antisense) [compound 301019]", "% INHIB (inhibition of human apolipoprotein B mRNA levels)": 70}
{"substance": "271048 (e[5mC]*eT*eG*eA*eA*dG*dA*dT*dT*dA*d[5mC]*dG*dT*dA*dG*e[5mC]*eA*e[5mC]*e[5mC]*eT; antisense) [compound 271048]", "% INHIB (inhibition of human apolipoprotein B mRNA levels)": 7}
{"substance": "271003 (antisense eG*eA*e[5mC]*eA*e[5mC]*d[5mC]*dA*dT*d[5mC]*dA*dG*dG*dA*dA*d[5mC]*eT*eT*eG*eA*e[5mC]) [compound 271003]", "% INHIB (inhibition of human apolipoprotein B mRNA levels)": 46}
{"substance": "281608 (antisense eG*eT*eA*eG*eA*dG*dA*d[5mC]*d[5mC]*dA*dA*dA*dT*dG*dT*eA*eA*eT*eG*eT) [compound 281608]", "% INHIB (inhibition of human apolipoprotein B mRNA levels)": 62}
{"test_system": "human apolipoprotein B mRNA", "assay": "Inhibition of human apolipoprotein B mRNA levels in HepG2 cells, quantitative real-time PCR", "format": "cell-based", "conditions": "HepG2 cells; 50 nM; 24 hour (Table 40)", "summary_of_the_method": "as §1"}
{"substance": "332773 (antisense GCCTCATTATTATTCGCACC; sugars from the 5' end e5 d10 e5, all phosphorothioate, methylation of C not given here) [compound 332773]", "% Change in apolipoprotein B mRNA expression": "+75%"}
{"test_system": "human apolipoprotein B mRNA", "assay": "Inhibition of human apolipoprotein B mRNA levels in HepG2 cells, quantitative real-time PCR", "format": "cell-based", "conditions": "HepG2 cells; 150 nM; 24 hour (Table 40)", "summary_of_the_method": "as §1"}
{"substance": "332773 (antisense GCCTCATTATTATTCGCACC; sugars from the 5' end e5 d10 e5, all phosphorothioate, methylation of C not given here) [compound 332773]", "% Change in apolipoprotein B mRNA expression": "+80%"}
{"test_system": "human apolipoprotein B mRNA", "assay": "Inhibition of human apolipoprotein B mRNA levels in HepG2 cells, quantitative real-time PCR", "format": "cell-based", "conditions": "HepG2 cells; 50 nm oligonucleotide; variable deoxy gap position", "summary_of_the_method": "as §1", "units": {"% INHIB 50 nm": "%"}}
{"substance": "308656 (antisense GCCTCAGTCTGCTTCGCACC; 8-10-2 2'-MOE gapmer, phosphorothioate, chemistry not fully specified) [compound 308656]", "% INHIB 50 nm": 37}
{"test_system": "human apolipoprotein B mRNA", "assay": "Inhibition of human apolipoprotein B mRNA levels in HepG2 cells, quantitative real-time PCR", "format": "cell-based", "conditions": "HepG2 cells; 150 nm oligonucleotide; variable deoxy gap position", "summary_of_the_method": "as §1", "units": {"% INHIB 150 nm": "%"}}
{"substance": "308656 (antisense GCCTCAGTCTGCTTCGCACC; 8-10-2 2'-MOE gapmer, phosphorothioate, chemistry not fully specified) [compound 308656]", "% INHIB 150 nm": 97}
{"test_system": "human apolipoprotein B mRNA", "assay": "Inhibition of human apolipoprotein B mRNA levels in HepG2 cells, quantitative real-time PCR", "format": "cell-based", "conditions": "HepG2 cells; human apolipoprotein B mRNA; oligonucleotides targeting genomic sequence SEQ ID NO 334; averages from two experiments", "summary_of_the_method": "as §1", "units": {"% INHIB": "%"}}
{"substance": "301058 (eA*eG*eG*eA*eG*dG*dA*dT*dG*dT*d[5mC]*d[5mC]*dT*dT*dT*eT*eA*eT*eT*eG; antisense) [compound 301058]", "% INHIB": 27}
{"substance": "301157 (eG*e[5mC]*e[5mC]*eT*eG*dG*d[5mC]*dA*dA*dA*dA*dT*dT*d[5mC]*dT*eG*e[5mC]*eA*eG*eG; antisense) [compound 301157]", "% INHIB": 37}
{"substance": "301160 (eA*e[5mC]*e[5mC]*eT*eT*dG*dT*dG*dT*dG*dT*d[5mC]*dT*d[5mC]*dA*e[5mC]*eT*e[5mC]*eA*eA; antisense) [compound 301160]", "% INHIB": 49}
{"substance": "301115 (antisense e[5mC]*eA*e[5mC]*eA*eA*dG*dA*dG*dT*dA*dA*dG*dG*dA*dG*e[5mC]*eA*eG*eA*eG) [compound 301115]", "% INHIB": 39}
{"substance": "301070 (eG*eT*eT*eG*eG*dA*d[5mC]*dA*dG*dT*d[5mC]*dA*dT*dT*d[5mC]*eT*eT*eT*eT*eG; antisense) [compound 301070]", "% INHIB": 38}
{"substance": "301185 (antisense eT*eG*e[5mC]*eT*eT*d[5mC]*dG*d[5mC]*dA*d[5mC]*d[5mC]*dT*dG*dG*dA*e[5mC]*eG*eA*eG*eT) [compound 301185]", "% INHIB": 51}
{"substance": "301049 (eT*e[5mC]*eT*eG*eT*dA*dA*dG*dA*d[5mC]*dA*dG*dG*dA*dG*eA*eA*eA*eG*eA; antisense) [compound 301049]", "% INHIB": 41}
{"substance": "301194 (antisense eG*eT*eT*e[5mC]*eT*d[5mC]*dA*dT*dG*dT*dT*dT*dA*d[5mC]*dT*eA*eA*eT*eG*e[5mC]) [compound 301194]", "% INHIB": 40}
{"substance": "301198 (antisense e[5mC]*eG*eG*eT*eG*d[5mC]*dA*d[5mC]*d[5mC]*d[5mC]*dT*dT*dT*dA*d[5mC]*e[5mC]*eT*eG*eA*eG) [compound 301198]", "% INHIB": 28}
{"substance": "301154 (e[5mC]*eA*eG*e[5mC]*e[5mC]*dT*dG*d[5mC]*dA*dT*d[5mC]*dT*dA*dT*dA*eA*eG*eT*e[5mC]*eA; antisense) [compound 301154]", "% INHIB": 31}
{"substance": "301212 (antisense eT*eT*eG*eA*eT*dG*dT*dA*dT*d[5mC]*dT*d[5mC]*dA*dT*d[5mC]*eT*eA*eG*e[5mC]*eA) [compound 301212]", "% INHIB": 41}
{"substance": "301145 (eA*eA*eG*eG*eA*d[5mC]*d[5mC]*dT*dT*d[5mC]*dA*dG*d[5mC]*dA*dA*eA*eG*eG*eT*eA; antisense) [compound 301145]", "% INHIB": 36}
{"test_system": "human apolipoprotein B mRNA", "assay": "Inhibition of human apolipoprotein B mRNA levels in HepG2 cells, quantitative real-time PCR", "format": "cell-based", "conditions": "Table 1; HepG2 cells, 150 nM; averages from two experiments", "summary_of_the_method": "as §1", "units": {"% INHIB": "%"}}
{"substance": "147786 (antisense e[5mC]*eT*eT*eG*eA*dA*dT*d[5mC]*dA*dG*d[5mC]*dA*dG*dT*d[5mC]*e[5mC]*e[5mC]*eA*eG*eG) [compound 147786]", "% INHIB": 34}
{"substance": "147810 (antisense eA*eT*eT*eT*e[5mC]*dA*dG*d[5mC]*dA*dT*dA*dT*dG*dA*dG*e[5mC]*e[5mC]*e[5mC]*eA*eT) [compound 147810]", "% INHIB": 0}
{"substance": "147792 (antisense eG*eG*eA*e[5mC]*eA*d[5mC]*d[5mC]*dT*d[5mC]*dA*dA*dT*d[5mC]*dA*dG*e[5mC]*eT*eG*eT*eG) [compound 147792]", "% INHIB": 26}
{"substance": "147825 (antisense eA*eG*eA*eA*eG*d[5mC]*dT*dG*d[5mC]*d[5mC]*dT*d[5mC]*dT*dT*d[5mC]*eT*eT*e[5mC]*e[5mC]*e[5mC]) [compound 147825]", "% INHIB": 72}
{"test_system": "human apolipoprotein B mRNA", "assay": "Inhibition of human apolipoprotein B mRNA levels in HepG2 cells, quantitative real-time PCR", "format": "cell-based", "conditions": "Table 11 gene walk; HepG2 cells, 50 nM; averages from two experiments", "summary_of_the_method": "as §1", "units": {"% INHIB 50 nm": "%"}}
{"substance": "308602 (antisense e[5mC]*eA*eT*eG*eG*dT*dA*dG*d[5mC]*d[5mC]*dT*d[5mC]*dA*dG*dT*e[5mC]*eT*eG*e[5mC]*eT) [compound 308602]", "% INHIB 50 nm": 83}
{"substance": "308613 (eT*eA*eG*eG*eT*dT*dA*d[5mC]*d[5mC]*dA*dG*d[5mC]*d[5mC]*dA*d[5mC]*eA*eT*eG*e[5mC]*eA; antisense) [compound 308613]", "% INHIB 50 nm": 43}
{"test_system": "human apolipoprotein B mRNA", "assay": "Inhibition of human apolipoprotein B mRNA levels in HepG2 cells, quantitative real-time PCR", "format": "cell-based", "conditions": "Table 11 gene walk; HepG2 cells, 150 nM; averages from two experiments", "summary_of_the_method": "as §1", "units": {"% INHIB 150 nm": "%"}}
{"substance": "308602 (antisense e[5mC]*eA*eT*eG*eG*dT*dA*dG*d[5mC]*d[5mC]*dT*d[5mC]*dA*dG*dT*e[5mC]*eT*eG*e[5mC]*eT) [compound 308602]", "% INHIB 150 nm": 92}
{"substance": "308613 (eT*eA*eG*eG*eT*dT*dA*d[5mC]*d[5mC]*dA*dG*d[5mC]*d[5mC]*dA*d[5mC]*eA*eT*eG*e[5mC]*eA; antisense) [compound 308613]", "% INHIB 150 nm": 87}
{"test_system": "human apolipoprotein B mRNA", "assay": "Inhibition of human apolipoprotein B mRNA levels in HepG2 cells, quantitative real-time PCR", "format": "cell-based", "conditions": "Table 12; HepG2 cells, 150 nM; averages from two experiments", "summary_of_the_method": "as §1", "units": {"% INHIB": "%"}}
{"substance": "281647 (eT*eG*eA*eG*eT*dG*dA*dG*dT*d[5mC]*dA*dA*dT*d[5mC]*dA*eG*e[5mC]*eT*eT*e[5mC]) [compound 281647]", "% INHIB": 73}
{"test_system": "human apolipoprotein B mRNA", "assay": "Inhibition of human apolipoprotein B mRNA levels in HepG2 cells, quantitative real-time PCR", "format": "cell-based", "conditions": "Table 17 variable gap; HepG2 cells, 50 nM; averages from three experiments", "summary_of_the_method": "as §1", "units": {"% INHIB 50 nm": "%"}}
{"substance": "308630 (GCCTCAGTCTGCTTCGCGCC; 0-10-10 MOE gapmer, phosphorothioate, chemistry not fully specified) [compound 308630]", "% INHIB 50 nm": 69}
{"test_system": "human apolipoprotein B mRNA", "assay": "Inhibition of human apolipoprotein B mRNA levels in HepG2 cells, quantitative real-time PCR", "format": "cell-based", "conditions": "Table 17 variable gap; HepG2 cells, 150 nM; averages from three experiments", "summary_of_the_method": "as §1", "units": {"% INHIB 150 nm": "%"}}
{"substance": "308630 (GCCTCAGTCTGCTTCGCGCC; 0-10-10 MOE gapmer, phosphorothioate, chemistry not fully specified) [compound 308630]", "% INHIB 150 nm": 89}
